Source: PubChem BioAssay (NCI)
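Cultured in 96-well plates, cells were exposed to test compound for 48 hours across five concentrations. The concentration for full growth arrest is given as TGI.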

Assays:
Assay in all cases: inhibition of tumour cell growth, NCI panel, 48 h
SR leukemia = system: SR leukemia
SW-620 colon = system: SW-620 colon
MDA-MB-231 breast = system: MDA-MB-231 breast
UACC-257 melanoma = system: UACC-257 melanoma
BT-549 breast = system: BT-549 breast
TK-10 renal = system: TK-10 renal
UACC-62 melanoma = system: UACC-62 melanoma
HS 578T breast = system: HS 578T breast
MALME-3M melanoma = system: MALME-3M melanoma
MCF7 breast = system: MCF7 breast
HCT-15 colon = system: HCT-15 colon
NCI-H460 lung = system: NCI-H460 lung
IGROV1 ovarian = system: IGROV1 ovarian
COLO 205 colon = system: COLO 205 colon
CCRF-CEM leukemia = system: CCRF-CEM leukemia
SF-268 CNS = system: SF-268 CNS
786-0 renal = system: 786-0 renal
HOP-62 NSCLC = system: HOP-62 NSCLC
UO-31 renal = system: UO-31 renal
SK-MEL-5 melanoma = system: SK-MEL-5 melanoma
HT29 colon = system: HT29 colon
CAKI-1 renal = system: CAKI-1 renal
MDA-N = system: MDA-N
HL-60(TB) leukemia = system: HL-60(TB) leukemia
T-47D breast = system: T-47D breast
RXF 393 renal = system: RXF 393 renal
SK-MEL-2 melanoma = system: SK-MEL-2 melanoma
NCI-H23 lung = system: NCI-H23 lung
OVCAR-3 ovarian = system: OVCAR-3 ovarian
NCI/ADR-RES ovarian = system: NCI/ADR-RES ovarian
SK-OV-3 ovarian = system: SK-OV-3 ovarian
U251 CNS = system: U251 CNS
M14 melanoma = system: M14 melanoma
SNB-19 CNS = system: SNB-19 CNS
HCC-2998 colon = system: HCC-2998 colon
SNB-75 CNS = system: SNB-75 CNS
RPMI-8226 leukemia = system: RPMI-8226 leukemia
SK-MEL-28 melanoma = system: SK-MEL-28 melanoma
HOP-92 NSCLC = system: HOP-92 NSCLC
OVCAR-4 ovarian = system: OVCAR-4 ovarian
SN12C renal = system: SN12C renal
NCI-H226 lung = system: NCI-H226 lung
NCI-H522 lung = system: NCI-H522 lung
HCT-116 colon = system: HCT-116 colon
DU-145 prostate = system: DU-145 prostate
SF-295 CNS = system: SF-295 CNS
A498 renal = system: A498 renal
KM12 colon = system: KM12 colon
SF-539 CNS = system: SF-539 CNS
MOLT-4 leukemia = system: MOLT-4 leukemia
LOX IMVI melanoma = system: LOX IMVI melanoma
EKVX NSCLC = system: EKVX NSCLC
ACHN renal = system: ACHN renal
K-562 leukemia = system: K-562 leukemia
PC-3 prostate = system: PC-3 prostate
OVCAR-5 ovarian = system: OVCAR-5 ovarian
A549 NSCLC = system: A549 NSCLC
MDA-MB-435 = system: MDA-MB-435
OVCAR-8 ovarian = system: OVCAR-8 ovarian

## C[C@]12CC[C@H](O)C[C@@H]1CC[C@@H]1[C@@H]2CC[C@]2(C)[C@@H](c3cc(C(F)(F)F)n[nH]3)CC[C@@H]12
SR leukemia
  TGI: 15.3 µM
SW-620 colon
  TGI: 37.3 µM
MDA-MB-231 breast
  TGI: 18.9 µM
UACC-257 melanoma
  TGI: 16.8 µM
BT-549 breast
  TGI: 23 µM
TK-10 renal
  TGI: 16 µM
UACC-62 melanoma
  TGI: 27.4 µM
HS 578T breast
  TGI: > 58.9 µM
MALME-3M melanoma
  TGI: > 53.3 µM
MCF7 breast
  TGI: 21.1 µM
HCT-15 colon
  TGI: 24.3 µM
NCI-H460 lung
  TGI: 15.3 µM
IGROV1 ovarian
  TGI: 19.8 µM
COLO 205 colon
  TGI: 16.2 µM
CCRF-CEM leukemia
  TGI: 5.43 µM
SF-268 CNS
  TGI: > 53.6 µM
786-0 renal
  TGI: 17 µM
HOP-62 NSCLC
  TGI: 23 µM
UO-31 renal
  TGI: 3.1 µM
SK-MEL-5 melanoma
  TGI: 19.6 µM
HT29 colon
  TGI: 18.4 µM
CAKI-1 renal
  TGI: 26.9 µM
MDA-N
  TGI: 25.4 µM
HL-60(TB) leukemia
  TGI: 2.89 µM
T-47D breast
  TGI: 23.6 µM
RXF 393 renal
  TGI: 16.5 µM
SK-MEL-2 melanoma
  TGI: 33.1 µM
NCI-H23 lung
  TGI: 24.7 µM
OVCAR-3 ovarian
  TGI: 24.8 µM
NCI/ADR-RES ovarian
  TGI: 23.3 µM
SK-OV-3 ovarian
  TGI: 28.4 µM
U251 CNS
  TGI: 24.1 µM
M14 melanoma
  TGI: 23.9 µM
SNB-19 CNS
  TGI: 28.3 µM
HCC-2998 colon
  TGI: 34.4 µM
SNB-75 CNS
  TGI: 24.5 µM
RPMI-8226 leukemia
  TGI: 22.7 µM
SK-MEL-28 melanoma
  TGI: 26.9 µM
HOP-92 NSCLC
  TGI: 9.07 µM
OVCAR-4 ovarian
  TGI: 20.2 µM
SN12C renal
  TGI: 21.7 µM
NCI-H226 lung
  TGI: 36.7 µM
NCI-H522 lung
  TGI: > 43.8 µM
HCT-116 colon
  TGI: 14 µM
DU-145 prostate
  TGI: 22.9 µM
SF-295 CNS
  TGI: 16.9 µM
A498 renal
  TGI: 21.1 µM
KM12 colon
  TGI: 25.6 µM
SF-539 CNS
  TGI: 22.5 µM
MOLT-4 leukemia
  TGI: 19.7 µM
LOX IMVI melanoma
  TGI: 21.7 µM
EKVX NSCLC
  TGI: 28.2 µM
ACHN renal
  TGI: 20 µM
K-562 leukemia
  TGI: 15.3 µM
PC-3 prostate
  TGI: 20.7 µM
OVCAR-5 ovarian
  TGI: 23.5 µM
A549 NSCLC
  TGI: 23.1 µM
MDA-MB-435
  TGI: 22.9 µM
OVCAR-8 ovarian
  TGI: 21 µM

## CC(O)C1(CNc2cc(Cl)nc(N)n2)CCCC1 (stereo not drawn)
SR leukemia
  TGI: > 100 µM
SW-620 colon
  TGI: > 100 µM
MDA-MB-231 breast
  TGI: > 100 µM
UACC-257 melanoma
  TGI: > 100 µM
BT-549 breast
  TGI: > 100 µM
TK-10 renal
  TGI: > 100 µM
UACC-62 melanoma
  TGI: > 100 µM
HS 578T breast
  TGI: > 100 µM
MALME-3M melanoma
  TGI: > 100 µM
MCF7 breast
  TGI: > 100 µM
HCT-15 colon
  TGI: > 100 µM
NCI-H460 lung
  TGI: > 100 µM
IGROV1 ovarian
  TGI: > 100 µM
COLO 205 colon
  TGI: > 100 µM
CCRF-CEM leukemia
  TGI: > 100 µM
SF-268 CNS
  TGI: > 100 µM
786-0 renal
  TGI: > 100 µM
HOP-62 NSCLC
  TGI: > 100 µM
UO-31 renal
  TGI: > 100 µM
SK-MEL-5 melanoma
  TGI: > 100 µM
HT29 colon
  TGI: > 100 µM
CAKI-1 renal
  TGI: > 100 µM
MDA-N
  TGI: > 100 µM
HL-60(TB) leukemia
  TGI: > 100 µM
T-47D breast
  TGI: > 100 µM
RXF 393 renal
  TGI: > 100 µM
SK-MEL-2 melanoma
  TGI: > 100 µM
NCI-H23 lung
  TGI: > 100 µM
OVCAR-3 ovarian
  TGI: > 100 µM
NCI/ADR-RES ovarian
  TGI: > 100 µM
SK-OV-3 ovarian
  TGI: > 100 µM
U251 CNS
  TGI: > 100 µM
M14 melanoma
  TGI: > 100 µM
SNB-19 CNS
  TGI: > 100 µM
HCC-2998 colon
  TGI: > 100 µM
SNB-75 CNS
  TGI: > 100 µM
RPMI-8226 leukemia
  TGI: > 100 µM
SK-MEL-28 melanoma
  TGI: > 100 µM
HOP-92 NSCLC
  TGI: > 100 µM
OVCAR-4 ovarian
  TGI: > 100 µM
SN12C renal
  TGI: > 100 µM
NCI-H226 lung
  TGI: > 100 µM
NCI-H522 lung
  TGI: > 100 µM
HCT-116 colon
  TGI: > 100 µM
DU-145 prostate
  TGI: > 100 µM
SF-295 CNS
  TGI: > 100 µM
A498 renal
  TGI: > 100 µM
KM12 colon
  TGI: > 100 µM
SF-539 CNS
  TGI: > 100 µM
MOLT-4 leukemia
  TGI: > 100 µM
LOX IMVI melanoma
  TGI: > 100 µM
EKVX NSCLC
  TGI: > 100 µM
ACHN renal
  TGI: > 100 µM
K-562 leukemia
  TGI: > 100 µM
PC-3 prostate
  TGI: > 100 µM
OVCAR-5 ovarian
  TGI: > 100 µM
A549 NSCLC
  TGI: > 100 µM
MDA-MB-435
  TGI: > 100 µM
OVCAR-8 ovarian
  TGI: > 100 µM
